According to publication PMC9006931, “Altered Response Pattern following AZD5582 Treatment of SIV-Infected, ART-Suppressed Rhesus Macaque Infants” (Journal of Virology, 2022):

How the values were obtained:
[1] = test system: CD4+ T cells from SIV-infected, ART-suppressed infant RMs; assay: Ex vivo viral RNA induction assay, infant CD4+ T cells; assay type: cell-based, rhesus macaque; details: 100 nM, 9 days, in presence of DTG+FTC
Text: Following confirmation of ncNF-κB pathway activation in infant naive and memory CD4^+ T cells ex vivo, we next sought to evaluate SIV reactivation following ex vivo AZD5582 stimulation in CD4^+ T cells isolated from SIV-infected, ART-suppressed infant RMs compared to CD4^+ T cells from SIV-infected, ART-suppressed adult RMs. To do so, we isolated CD4^+ T cells through negative selection from the peripheral blood of five SIV-infected, ART-suppressed adult RMs and five SIV-infected, ART-suppressed infant RMs. Cells were stimulated with either 100 nM AZD5582 or rhesus specific anti-CD2/CD3/CD28 beads (as a positive control) in the presence of ART (DTG+FTC) for 9 days. The supernatant was collected to quantify SIVgag RNA through qPCR as a measure of viral reactivation.
Viable cryopreserved PBMCs from SIV-infected, ART-suppressed infant and adult RMs collected 34 to 97 weeks post ART initiation were thawed, and CD4^+ T cells were enriched by negative selection using the NHP CD4^+ T cell isolation kit (Miltenyi Biotec). […] The viral RNA content of frozen cell-free culture supernatants collected on day 9 was determined using the SIVgag qPCR described above.

[2] = test system: SIVmac251; assay: On-ART viremia (latency reversal) during AZD5582 treatment of SIV-infected, ART-suppressed infant RMs; assay type: in vivo, rhesus macaque (Macaca mulatta)
Text: In this study, latency reversal was defined as a plasma SIV RNA level above 60 copies/mL during AZD5582 treatment in the presence of continued daily ART (or, “on-ART viremia”). […] On-ART viremia peaked at 771 copies/mL in RVf20 2 days post-dose 9. […] This low-level viremia contrasts, however, with the sustained suppression below 60 copies/mL in the 10 months before AZD5582 treatment in these 3 infants (Fig. 1B).
Twelve infant, Indian RMs (Macaca mulatta), with the exclusion of Mamu B*08- and B*17-positive animals, were enrolled in this study. The animals were born at the Yerkes National Primate Research Center (YNPRC) to dams housed in indoor/outdoor group housing. The infants were removed from the dams when they were approximately 2 weeks old and transferred to an indoor nursery, where they were housed in social pairs with either full contact or protected contact for the duration of the study. The infants were fed in accordance with the YNPRC standard operating procedures (SOPs) for NHP feeding. After being removed from the dam, infants were fed center-approved milk replacer (Similac Advance, OptiGro Infant Formula with Iron and/or Similac Soy Isomil OptiGro Infant Formula with Iron; Abbott Nutrition, Columbus, OH) until 14 weeks of age. Infants were provided softened standard primate jumbo chow biscuits (Jumbo Monkey Diet 5037; Purina Mills, St. Louis, MO) and a portion of orange starting between 2 to 4 weeks of age. As animals aged additional enrichment of various fresh produce items were provided daily. The animals were orally infected at 4 to 5 weeks of age with two consecutive doses of 10^5 TCID50 (50% tissue culture infectious doses) of SIVmac251. Three infants required multiple weekly 2-dose challenges before successful infection (totaling up to three challenges). Eight historical controls that followed the same regimen were included in this study. Yerkes National Primate Research Center is accredited by both the U.S. Department of Agriculture (USDA) and by the Association for Assessment and Accreditation of Laboratory Animal Care (AAALAC). All animal procedures were performed in accordance with guidelines established by the Emory University Institutional Animal Care and Use Committee Guidelines and those set up by the NIH’s Guide for the Care and Use of Laboratory Animals, 8th edition.
The 12 RM infants were treated with a potent three-drug ART regimen initiated at 4 weeks postinfection. The preformulation ART cocktail contained two reverse transcriptase inhibitors, 5.1 mg/kg tenofovir disoproxil fumarate (TDF) and 40 mg/kg emtricitabine (FTC), plus 2.5 mg/kg of the integrase inhibitor dolutegravir (DTG). This ART cocktail was administered once daily at […] via the subcutaneous route.
The IAPi AZD5582 was reconstituted to 0.4 mg/mL in 10% Captisol within 1 week of administration as previously described ([17]). Monkeys assigned to the experimental intervention group received 10 administrations of 0.1 mg/kg AZD5582 by intravenous (i.v.) infusion with an inline filter for 30 minutes every week for 10 weeks.
Plasma viral quantification was performed as described previously ([12]). The frozen cell pellet was lysed with proteinase K (100 μg/mL in 10 mM Tris-HCl pH 8) for 1h at 56°C. Quantification of SIVmac gag DNA was performed by quantitative PCR (qPCR) using the 5′ nuclease (TaqMan) assay with an ABI7500 system (PerkinElmer Life Sciences). The sequence of the forward primer for SIVmac gag was 5′-[…]-3′, the reverse primer sequence was 5′-[…]-3′, and the probe sequence was 5′-6-carboxyfluorescein (FAM)-[…]-6-carboxytetramethylrhodamine (TAMRA)-3′. 7.5 μL of cell lysate were mixed in a 50 μL reaction mixture containing 1× Platinum Buffer, 3.5 mM MgCl2, 0.2 mM dNTP, primers 200 nM, probe 150 nM, and 2U Platinum Taq. For cell number quantification, quantitative PCR was performed simultaneously for monkey albumin gene copy number. […]

[3] = 10 weekly doses 0.1 mg/kg i.v., LOD 60 copies/mL

CN[C@@H](C)C(=O)N[C@H](C(=O)N1CCC[C@H]1C(=O)N[C@H]1c2ccccc2C[C@H]1OCC#CC#CCO[C@@H]1Cc2ccccc2[C@@H]1NC(=O)[C@@H]1CCCN1C(=O)[C@@H](NC(=O)[C@H](C)NC)C1CCCCC1)C1CCCCC1 [AZD5582]
Animals whose CD4+ T cell cultures showed increased SIV RNA expression in supernatant [1]: 1/5 | First instance of latency reversal, time after the 4th dose [2]: 48 h | Start of on-ART viremia, time post-dose 4 [2]: 3 days | SIV reactivation, per animal (RMs with on-ART viremia above LOD) [2, 3]: 5/8 | SIV reactivation, per animal (percent of RMs with on-ART viremia) [2, 3]: 63% | SIV reactivation, events >60 copies/ml (percent of measurements) ([2]; 135 measurements in the 5 RMs with on-ART viremia): 6% | Peak on-ART viremia ([2]; RVf20, 2 days post-dose 9): 771 copies/mL | SIV reactivation, events >60 copies/ml (measurements above LOD) ([2]; of 135 viral load measurements in the 5 RMs with on-ART viremia): 8
